According to paper PMC4494705 (PLoS ONE, 2015):
“Also recorded” adds a separate entry of the source. Like-named read-outs stand apart in the source and are kept apart here. One block for each molecule: values may come before it.

Assays:
[1] = Single time point (1 h) brain concentrations after i.n. administration in rats; assay type: in vivo; details: rat, 30 mg/kg i.n., 1 h post dose; for concentration at 1 h: male, Wistar, other: intranasal (i.n.)
GCP-II [2] = details: GCP-II inhibition, cited from earlier work
[3] = non-human primates; halted development; no reference given; cited from earlier work
[4] = Plasma and CSF exposure after i.n. administration in non-human primate; assay type: in vivo; details: male cynomolgus monkey, 30 min post dose
Experimental: Total dose delivered was 100 mg.
Standard curves were generated in blank artificial CSF. […] Samples were analysed on agilent QTOF mass spectrometer by LC/MS.

[5] = Pharmacokinetics of 2-PMPA after i.n. administration in rats; assay type: in vivo; details: rat
[6] = Pharmacokinetics of 2-PMPA after i.p. administration in rats; assay type: in vivo; details: rat, 30 mg/kg i.p.
Experimental: For i.p. studies 2-PMPA was administered as a single i.p. dose. All dosing solutions were prepared on the day of the experiment in 50 mM HEPES buffered saline, and pH adjusted to 7.4 before injection. At various time points following drug administration (0.16, .5, 1, 3, 5 h) post dose, animals (n = 3 per time point, except 3 h n = 2 animals) were euthanized with CO2, and blood samples were collected in heparinized microtubes by cardiac puncture and tissues (olfactory bulb, frontal cortex, and cerebellum) were dissected and immediately flash frozen (-80°C). Plasma was prepared by centrifugation immediately after collection of blood samples. All samples were stored in -80°C until bioanalysis. […]
The maximum plasma concentration (Cmax) and time to Cmax (Tmax) were the observed values. The area under the plasma concentration time curve (AUC) value was calculated to the last quantifiable sample (AUClast) by use of the log-linear trapezoidal rule. The brain to plasma partition coefficients were calculated as a ratio of their AUCs (AUC0-t,brain/AUC0-t,plasma). The elimination half-life (t1/2) was determined by dividing 0.693 by λ z.

[7] = following systemic administration; ref [45]; cited from earlier work
GCP-II [8] = molecular target: T1, GCP-II (Rattus norvegicus, UniProt P70627); assay: Ex vivo GCP-II enzymatic (NAAG hydrolyzing) activity in brain tissue after i.n. administration; details: for inhibition at 30 mg/kg: inhaled or nasal, 30 mg/kg i.n., 1 h post dose, relative to untreated control rats
T1 construct: from tissue; host or cells: rat brain (olfactory bulb, cortex, cerebellum), sonicated homogenate supernatant
Experimental: One half of the brain tissues collected following i.n. administration (1h post dose) was used to determine GCP-II NAAG hydrolyzing activity. In brief, tissues were weighed and immersed in 0.5 mL of ice-cold 50 mM Tris Buffer (pH 7.7 at RT). Each tissue was sonicated for 30–60 seconds using an ultrasonic cell disrupter. After a 2 minute spin at 13,000 g, supernatants were analyzed for protein content and NAAG-hydrolyzing activity measurements were performed as previously described.

[9] = cerebellum, read-out: Mean concentration in cerebellum
[10] = frontal cortex, read-out: Mean concentration in cortex
[11] = olfactory bulb, read-out: Mean concentration in olfactory bulb
[12] = printed in Fig 1, no method or reference given in this paper, read-out: Potency (IC50)

T1 sequence (P70627 whole entry): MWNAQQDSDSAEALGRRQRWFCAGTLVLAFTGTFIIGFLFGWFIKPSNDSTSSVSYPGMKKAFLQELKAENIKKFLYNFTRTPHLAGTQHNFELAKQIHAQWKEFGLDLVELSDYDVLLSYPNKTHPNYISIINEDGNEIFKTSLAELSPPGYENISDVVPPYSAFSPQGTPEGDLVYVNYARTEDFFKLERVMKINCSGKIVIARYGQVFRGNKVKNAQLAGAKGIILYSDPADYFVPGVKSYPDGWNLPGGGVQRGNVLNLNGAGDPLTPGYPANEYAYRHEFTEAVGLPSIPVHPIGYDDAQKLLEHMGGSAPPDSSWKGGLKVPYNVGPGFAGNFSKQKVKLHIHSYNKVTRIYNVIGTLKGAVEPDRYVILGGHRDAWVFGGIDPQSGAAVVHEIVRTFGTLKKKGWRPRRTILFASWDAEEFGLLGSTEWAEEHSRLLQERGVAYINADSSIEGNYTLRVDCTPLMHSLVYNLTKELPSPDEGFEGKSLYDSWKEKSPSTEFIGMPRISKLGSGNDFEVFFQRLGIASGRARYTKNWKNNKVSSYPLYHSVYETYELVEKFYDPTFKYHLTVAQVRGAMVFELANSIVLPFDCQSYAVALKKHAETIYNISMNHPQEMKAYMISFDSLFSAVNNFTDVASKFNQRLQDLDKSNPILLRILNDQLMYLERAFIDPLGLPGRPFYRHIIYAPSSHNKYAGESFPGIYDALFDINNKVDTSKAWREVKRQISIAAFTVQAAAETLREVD

- concentration at 1 h [1, 9]: 210 ng/g
- concentration at 1 h [1, 10]: 260 ng/g
- concentration at 1 h [1, 11]: 4460 ng/g
Compound: O=C(O)CCC(CCCS)C(=O)O (stereo not drawn) [2-MPPA, 2-(3-mercaptopropyl)pentane-dioic acid]
- IC50 (GCP-II [2]; [12]): 90 nM
- Toxicity observed in primate studies [3]: membranoproliferative glomerular nephritis; also recorded: immunological toxicities

Compound: O=C(O)CCC(CP(=O)(O)O)C(=O)O (stereo not drawn) [2-PMPA, 2-(phosphonomethyl)-pentanedioic acid]
- Cmax ([5]; male, Wistar, other: intranasal (i.n.), 30 mg/kg i.n., plasma): 24700 ng/mL
- AUC(0-t) ([5]; male, Wistar, plasma, other: intranasal (i.n.), 30 mg/kg i.n., read-out: AUC0-t plasma): 52300 ng·h/mL
- AUC0-t cerebellum ([5]; 30 mg/kg i.n.): 5.27 µg·h/g
- AUC0-t cortex ([5]; 30 mg/kg i.n.): 37.7 µg·h/g
- AUC0-t olfactory bulb ([5]; 30 mg/kg i.n.): 78.1 µg·h/g
- Brain tissue to plasma ratio (AUC0-t,brain/AUC0-t,plasma), cortex ([5]; 30 mg/kg i.n.): 0.71
- Brain tissue to plasma ratio (AUC0-t,brain/AUC0-t,plasma), olfactory bulb ([5]; 30 mg/kg i.n.): 1.49
- half-life ([6]; male, Wistar, ip, plasma, read-out: Elimination t1/2 (converted)): 59.4 min
- Cmax ([6]; male, Wistar, ip, plasma, read-out: Peak plasma concentration (Cmax)): 49500 ng/mL
- CL/F ([6]; male, Wistar, plasma, ip, read-out: Apparent clearance): 9.71 mL/min/kg
- AUC0-t cerebellum [6]: 0.80 µg·h/g
- AUC0-t olfactory bulb [6]: 1.15 µg·h/g
- Apparent volume of distribution [6]: 0.82 L/kg
- Mean concentration in cerebellum [1]: 2.13 µg/g
- Mean concentration in cortex [1]: 10.3 µg/g
- Mean concentration in olfactory bulb [1]: 31.2 µg/g
- Inhibition of brain GCP-II enzymatic activity ex-vivo (in words) (GCP-II [8]; i.n. administration): complete inhibition
- inhibition at 30 mg/kg (GCP-II [8]; read-out: Inhibition of GCP-II activity, cerebellum): 70%

- concentration at 1 h [1, 9]: 200 ng/g
- concentration at 1 h [1, 10]: 2030 ng/g
- concentration at 1 h [1, 11]: 2120 ng/g
Compound: O=C(O)CC[C@H](NC(=O)N[C@@H](CS)C(=O)O)C(=O)O [DCMC, N-[N-[(S)-1,3-dicarboxypropyl]carbamoyl]-L-cysteine, reference compound]
- IC50 (GCP-II [2]; [12]): 3.1 nM
